Experimental data as given in paper PMC11477294, “In Vitro Profiling of the Antiviral Peptide TAT-I24” (International Journal of Molecular Sciences, 2024).
Where a SMILES comes first, the peptide text is derived from it. Bridges are numbered along the chain shown (N, C = ends).

How the values were obtained:
[1] = tested on: baculovirus expressing luciferase under the control of the CMV promoter; format: cell-based; conditions: luciferase reporter gene expression in HEK293 cells transduced with baculovirus-luc, MOI 5, 24 h post-infection; 1:3 peptide dilution series; non-linear regression; n = 8
Method: A baculovirus expressing luciferase under the control of the CMV promoter has been described previously. HEK293 cells were seeded at a density of 2 × 10^4 cells/100 µL per well in 96-well plates (Sarstedt, Germany). On the next day, cells were treated with a 1:3 dilution series of peptides and, without further pre-incubation, subsequently infected with baculovirus–luc at a multiplicity of infection (MOI) of 5. Cells were lysed 24 h post-infection using 20 µL Cell Culture Lysis Reagent (Promega, Mannheim, Germany). From the lysates, 10 µL was transferred to white 96-well plates, and luciferase was recorded using a luciferase assay system and a GloMax®-Multi Detection System (Promega, Mannheim, Germany).

HEK293 cells = test: Cell viability assay (CellTiter-Blue) in HEK293 cells; format: cell-based; conditions: 72 h at 37 °C, 3-fold dilution series starting with 20 µM, triplicate, non-linear regression (curve fit)
Method: HEK293 cells were seeded at a density of 2.5 × 10^3 cells/100 µL per well in a 96-well plate (Sarstedt, Germany). In addition, a serial 1:2 dilution of the cell suspension was added to each plate to generate a standard curve. On the next day, cells were treated with serial 1:3 peptide dilutions in triplicate and incubated for 72 h at 37 °C. Then, 20 µL of CellTiter-Blue® Cell Viability Assay (Promega, Mannheim, Germany) was added to each well and incubated at 37 °C for a further 1–2 h. Fluorescence was recorded using a GloMax®-Multi Detection System (Promega, Mannheim, Germany). The percentage of viable cells was calculated from the cell dilution series from each plate by linear regression analysis. The selectivity index was calculated using the following formula: SI = CC50/IC50.
Figure S1. Cell viability assay in HEK293 cells in the presence of peptides. Cells were incubated with 3 -fold dilution series of peptides starting with a concentration of 20 µM for 72 hours and measured using the Cell Titer Blue assay. Curve fitting of % viable cells of untrea ted control was performed using Graph Pad Prism softwar e.
(1 picture or pasted object on this page, not shown here)

[2] = tested on: MCMV strain delm157-luc rep; format: cell-based, mouse cytomegalovirus; conditions: luciferase reporter gene expression in NIH/3T3 cells infected with replication-competent MCMV, MOI 0.5, 72 h post-infection; 1:3 dilution series; non-linear regression; n = 9
Method: NIH/3T3 cells were seeded at a density of 2 × 10^4 cells/100 µL per well in a 96-well plate (Sarstedt, Germany) and allowed to attach overnight. On the next day, cells were treated with a 1:3 dilutions series of peptides and, without further pre-incubation, subsequently infected with the MCMV strain delm157-luc rep. The MCMV stock was prepared and quantified as previously described. The virus (MOI 0.5 for luc assays; for other assays, see the specific descriptions) was adsorbed to cells with the aid of centrifugal enhancement twice at 800× g for 15 min at room temperature and incubated at 37 °C for the indicated times. For the luciferase assays, the infected cells were lysed 72 h post-infection using 20 µL Cell Culture Lysis Reagent (Promega, Mannheim, Germany). From the lysates, 10 µL was transferred to white 96-well plates, and luciferase was recorded using a Luciferase Assay System and a GloMax®-Multi Detection System (Promega, Mannheim, Germany).

[3] = tested on: human red blood cells (RBCs); test: Hemolysis assay with red blood cells; format: cell-based; conditions: 1 h at 37 °C; for hemolysis of human RBCs: peptide dilutions in PBS or PBS + 10% donor serum, concentrations < 20 µM (1:2 dilutions), OD 450 nm of supernatants, n = 6; for swelling of RBCs (pellet size after centrifugation): peptide dilutions prepared in PBS, up to 20 µM
Method: Blood from healthy volunteers was collected by venipuncture (Greiner Bio-One, Kremsmünster, Austria) into K2E K2EDTA VacuetteTM tubes (Greiner Bio-One, Kremsmünster, Austria) with 4 mL blood. The assay for hemolysis was adapted from Sæbo et al.. Blood was centrifuged at 1000× g for 10 min, and plasma was kept for further use. Red blood cells were then resuspended in 10 mL PBS and centrifuged again at 1000× g for a total of three times. Cells were then counted using a hemocytometer and seeded at a cell number of 1 × 10^7 cells/100 µL PBS per well in conical 96-well plates (ThermoFisher, Darmstadt, Germany). Next, 1:2 peptide dilutions starting from 40 µM either in PBS or 10% donor serum were prepared, and 100 µL was added to 100 µL of RBC. Plates were then incubated for one hour at 37 °C. As the positive control, three wells with 100 µL RBCs were treated with 100 µL PBS + 0.5% Triton X-100. After incubation, plates were centrifuged at 1000× g for 5 min and supernatants were transferred to flat 96-well plates. Optical density (OD) was determined at 450 nm using a GloMax®-Multi Detection System (Promega, Mannheim, Germany). Images from RBCs from light microscopy and centrifuged plates were taken using an iPhone 12 mini.

| Compound | IC50 [1] [µM] | HEK293 CC50 (HEK293 cells) [µM] | IC50 [2] [µM] | hemolysis of human RBCs [3] | swelling of RBCs (pellet size after centrifugation) [3] |
| --- | --- | --- | --- | --- | --- |
| CSCC[C@H](NC(=O)[C@H](Cc1ccccc1)NC(=O)[C@H](CCCNC(=N)N)NC(=O)[C@H](C)NC(=O)[C@H](Cc1ccc(O)cc1)NC(=O)[C@H](Cc1ccccc1)NC(=O)[C@H](C)NC(=O)[C@H](CC(C)C)NC(=O)[C@H](C)NC(=O)[C@H](CCC(N)=O)NC(=O)[C@@H]1CCCN1C(=O)[C@@H]1CCCN1C(=O)[C@H](CCCNC(=N)N)NC(=O)[C@H](CCCNC(=N)N)NC(=O)[C@H](CCCNC(=N)N)NC(=O)[C@H](CCC(N)=O)NC(=O)[C@H](CCCNC(=N)N)NC(=O)[C@H](CCCNC(=N)N)NC(=O)[C@H](CCCCN)NC(=O)[C@H](CCCCN)NC(=O)[C@H](CCCNC(=N)N)NC(=O)CN)C(=O)O [C14A, C20R, C22M] (H-GRKKRRQRRRPPQALAFYARFM-OH) | 0.58 | 63 | 3.59 | neither induce hemolysis | reduced swelling |
| CC(C)C[C@@H]1NC(=O)[C@@H](NC(=O)[C@H](CCC(N)=O)NC(=O)[C@@H]2CCCN2C(=O)[C@@H]2CCCN2C(=O)[C@H](CCCNC(=N)N)NC(=O)[C@H](CCCNC(=N)N)NC(=O)[C@H](CCCNC(=N)N)NC(=O)[C@H](CCC(N)=O)NC(=O)[C@H](CCCNC(=N)N)NC(=O)[C@H](CCCNC(=N)N)NC(=O)[C@H](CCCCN)NC(=O)[C@H](CCCCN)NC(=O)[C@H](CCCNC(=N)N)NC(=O)CN)CSSC[C@@H](C(=O)N[C@@H](Cc2ccccc2)C(=O)O)NC(=O)[C@H](C)NC(=O)[C@H](Cc2ccc(O)cc2)NC(=O)[C@H](Cc2ccccc2)NC(=O)[C@H](C)NC1=O [C22del_cyc] (H-GRKKRRQRRRPPQCLAFYACF-OH; disulfide 14-20) | 1.41 |  | 12.2 | neither induce hemolysis | reduced swelling |
